# Tested on: multi-drug-resistant NCl/ADR-carcinoma cell line
# Experiment: Growth inhibition of multi-drug-resistant NCl/ADR carcinoma cell line, crystal-violet assay
# Format: cell-based, human
# Settings: ratio of IC50 NCl/ADR to IC50 MCF-7
# From the text: In Vitro Activity of Epothilone Derivatives on Human Tumor Cell Lines
# a) IC50 values [nM] for the growth inhibition of human MCF-7-breast and multi-drug-resistant NCl/ADR-carcinoma cell lines of epothilone derivatives with 13Z-unsaturated in the crystal-violet assay in comparison to Taxol.
# b) IC50 values [nM] for the growth inhibition of human MCF-7-breast- and multi-drug-resistant NCl/ADR carcinoma cell lines of epothilone derivative with 13,14-α-epoxide, which was formed from the 13-Z-configured double bond in the crystal-violet assay in comparison to Taxol.
# c) IC50 values [nM] for the growth inhibition of human MCF-7-breast- and multi-drug-resistant NCl/ADR-carcinoma cell lines of epothilone derivatives with 13,14-epoxide, which was formed from the 13-E-configured double bond, in a crystal-violet assay in comparison to Taxol.
row,SMILES,Selectivity = IC50 (NCl/ADR) : IC50 (MCF-7)
1,"C=CCC[C@H]1C(=O)C(C)(C)[C@@H](O)CC(=O)O[C@H](/C(C)=C/c2ccccn2)C/C=C(/C)CCC[C@H](C)[C@@H]1O [Example 2, (4S,7R,8S,9S,13Z,16S(E))-4,8-Dihydroxy-16-(1-methyl-2-(2-pyridyl)ethenyl)-1-oxa-5,5,9,13-tetramethyl-7-(but-3-en-1-yl)-cyclohexadec-13-ene-2,6-dione]",2.8
2,C=CC[C@H]1C(=O)C(C)(C)[C@@H](O)CC(=O)O[C@H](/C(C)=C/c2csc(C)n2)C[C@H]2O[C@]2(C)CCC[C@H](C)[C@@H]1O [Example 12A or B],1.5
3,C#CC[C@H]1C(=O)C(C)(C)[C@@H](O)CC(=O)O[C@H](/C(F)=C/c2csc(C)n2)C[C@@H]2O[C@@]2(C)CCC[C@H](C)[C@@H]1O [Example 26A or B],3.3
4,"C#CC[C@H]1C(=O)C(C)(C)[C@@H](O)CC(=O)O[C@H](/C(F)=C/c2csc(C)n2)C[C@@H]2O[C@]2(C)CCC[C@H](C)[C@@H]1O [Example 25, (1S,3S(Z),7S,10R,11S,12S,16R)-7,11-Dihydroxy-3-(1-fluoro-2-(2-methyl-4-thiazolyl)ethenyl)-10-(prop-2-in-1-yl)-8,8,12,16-tetramethyl-4,17-dioxabicyclo[14.1.0]heptadecane-5,9-dione]",4.8
5,"C=CC[C@H]1C(=O)C(C)(C)[C@@H](O)CC(=O)O[C@H](/C(C)=C/c2csc(C)n2)C/C=C(/C)CCC[C@H](C)[C@@H]1O [Example 9, (4S,7R,8S,9S,13Z,16S(E))-4,8-Dihydroxy-16-(1-methyl-2-(2-methylthiazol-4-yl)ethenyl)-1-oxa-5,5,9,13-tetramethyl-7-(prop-2-en-1-yl)-cyclohexadec-13-ene-2,6-dione]",2.4
6,"C#CC[C@H]1C(=O)C(C)(C)[C@@H](O)CC(=O)O[C@H](/C(F)=C/c2coc(C)n2)C/C=C(/C)CCC[C@H](C)[C@@H]1O [Example 27, (4S,7R,8S,9S,13Z,16S(Z))-4,8-Dihydroxy-16-(1-fluoro-2-(2-methyloxazol-4-yl)ethenyl)-7-(prop-2-in-1-yl)-1-oxa-5,5,9,13-tetramethyl-cyclohexadec-13-ene-2,6-dione]",1.6
7,"C#CC[C@H]1C(=O)C(C)(C)[C@@H](O)CC(=O)O[C@H](/C(F)=C/c2csc(C)n2)C/C=C(/C)CCC[C@H](C)[C@@H]1O [Example 23, (4S,7R,8S,9S,13Z,16S(Z))-4,8-Dihydroxy-16-(1-fluoro-2-(2-methylthiazol-4-yl)ethenyl)-7-(prop-2-in-1-yl)-1-oxa-5,5,9,13-tetramethyl-cyclohexadec-13-ene-2,6-dione]",5.6
8,"C#CCC[C@H]1C(=O)C(C)(C)[C@@H](O)CC(=O)O[C@H](/C(C)=C/c2ccccn2)C/C=C(/C)CCC[C@H](C)[C@@H]1O [Example 1, (4S,7R,8S,9S,13Z,16S(E))-4,8-Dihydroxy-16-(1-methyl-2-(2-pyridyl)ethenyl)-1-oxa-5,9,13-tetramethyl-7-(but-3-in-1-yl)-cyclohexadec-13-ene-2,6-dione]",2.5

# Continued, values first:
row,Selectivity = IC50 (NCl/ADR) : IC50 (MCF-7),SMILES
1,7.0,"C#CCC[C@H]1C(=O)C(C)(C)[C@@H](O)CC(=O)O[C@H](/C(C)=C/c2ccccn2)C[C@@H]2O[C@]2(C)CCC[C@H](C)[C@@H]1O [Example 4A, (1S,3S(E),7S,10R,11S,12S,16R)-7,11-Dihydroxy-10-(but-3-in-1-yl)-3-(1-methyl-2-(2-pyridyl)ethenyl)-8,8,12,16-tetramethyl-4,17-dioxabicyclo[14.1.0]heptadecane-5,9-dione]"
2,3.0,"C=CC[C@H]1C(=O)C(C)(C)[C@@H](O)CC(=O)O[C@H](/C(C)=C/c2csc(C)n2)C[C@@H]2O[C@]2(C)CCC[C@H](C)[C@@H]1O [Example 10A, (1S,3S(E),7S,10R,11S,12S,16R)-7,11-Dihydroxy-10-(prop-2-en-1-yl)-3-(1-methyl-2-(2-methylthiazol-4-yl)ethenyl)-8,8,12,16-tetramethyl-4,17-dioxabicyclo[14.1.0]heptadecane-5,9-dione]"
3,1.2,"C=CCC[C@H]1C(=O)C(C)(C)[C@@H](O)CC(=O)O[C@H](/C(C)=C/c2ccccn2)C[C@@H]2O[C@]2(C)CCC[C@H](C)[C@@H]1O [Example 5A, (1S,3S(E),7S,10R,11S,12S,16R)-7,11-Dihydroxy-10-(but-3-en-1-yl)-3-(1-methyl-2-(2-pyridyl)ethenyl)-8,8,12,16-tetramethyl-4,17-dioxabicyclo[14.1.0]heptadecane-5,9-dione]"

# Same assay, conditions: statement in words, compared with Taxol
row,SMILES,action on the multi-drug-resistant cell line NCl/ADR
1,"CC(=O)O[C@H]1C(=O)[C@@]2(C)[C@H]([C@H](OC(=O)c3ccccc3)[C@]3(O)C[C@H](OC(=O)[C@H](O)[C@@H](NC(=O)c4ccccc4)c4ccccc4)C(C)=C1C3(C)C)[C@]1(OC(C)=O)CO[C@@H]1C[C@@H]2O [Taxol, reference compound]",not exhibited

# — patent US7700621B2, “6-alkenyl-, 6-alkinyl- and 6-epoxy-epothilone derivatives, process for their production, and their use in pharmaceutical preparations” (Bayer Schering Pharma Aktiengesellschaft, priority 1999, dated 2010)
